Experimental data taken from US12460243B2, “Mass spectrometry determination of the sensitivity or resistance of bacteria to an antibiotic” (priority 2019, dated 2025).
Bridge positions count the residues as written; N and C are the ends. Square brackets hold non-standard residues; d marks the D form. Peptide text beside a SMILES is read from it. * marks the point of attachment. Heptanoyl(6-Me) = CC(C)CCCCC(=O)*; Dab = NCC[C@H](N)C(=O)O

Experiments:
Format in all cases: cell-based
Acinetobacter baumannii [1] = assay: microdilution in broth (reference method); conditions: by microdilution in broth
Experimental: (§1) So as to be able to evaluate the efficacy of the method according to the invention, the different strains were analyzed beforehand by microdilution in broth in order to determine their status (sensitive or resistant). This method is regarded as the reference method by the CLSI and EUCAST.
(§2) As before, the different strains were analyzed beforehand by microdilution in broth in order to determine their status (sensitive or resistant).

Pseudomonas aeruginosa [2] = assay: microdilution in broth (reference method); conditions: by microdilution in broth
Experimental: as §1, §2

Escherichia coli = assay: MALDI-TOF detection of characteristic proteins released after incubation with colistin (examples II-IV, centrifugation); conditions: colistin 2.5 mg/ml
Experimental: This test was carried out using the following steps: • preparing a suspension of strains EC_S and EC_R of E. coli at 1 McFarland (McF) in water (suspension medium, bioMérieux reference 70700), • preparing a solution of colistin sulfate (Sigma, reference C4461) at a concentration of 5 mg/ml in pure water (taking into account the colistin titer indicated by the manufacturer), • mixing 250 μl of each suspension with 250 μl of colistin to obtain a solution of microorganism at 0.5 McF and at a concentration of 2.5 mg/ml of colistin, • homogenizing using a vortex for 5 seconds, • incubating the mixture for 4 hours at 37° C., • homogenizing using a vortex for 5 seconds, • centrifuging at 4700 rev/min (1500 g) for 5 minutes, • depositing 1 μl of the supernatant on a disposable target (bioMérieux reference 410893), • depositing 1 μl of HCCA matrix (bioMérieux, reference 411071) on the drop of supernatant, • analyzing the sample by MALDI-TOF spectrometry on VITEK-MS Plus (bioMérieux) with a method suitable for microbiology, i.e. with a positive ionization mode and a mass range from 2000 to 20 000 Th. • accumulating 100 profiles from 10 firings and comparing the data with the data contained in the databases for E. coli, • observing the presence or absence of protein peaks characteristic of E. coli. • determining the sensitivity to colistin if proteins characteristic of E. coli are detected or the resistance if no protein of E. coli is detected.
The E. coli strains S and R16 are analyzed with the same protocol as in example II apart from the incubation time of 30 minutes at 37° C. The S strain is sensitive to colistin and the R16 strain is resistant to colistin.
The same E. coli strains R16 and S are analyzed with the same protocol as in example III apart from incubation at 50° C.

Acinetobacter baumannii [3] = assay: MALDI-TOF detection of released characteristic proteins, 10 min at 50° C., filtration (example V); conditions: colistin 20 μg/ml, 10 min 50° C.
Experimental: (§3) The tests were carried out using the following steps: • preparing a suspension of microorganism at 2 McF in water (suspension medium, bioMérieux reference 70700), • preparing a solution of colistin sulfate (Sigma reference C4461) at a concentration of 2× in pure water (taking into account the colistin titer indicated by the manufacturer).
(§4) The strains of A. baumannii (AB_S044, AB_S045, AB_S046, AB_R-E105) and of Pseudomonas aeruginosa (PA_S062, PA_SE64, PA_RE66, PA_RE68) are analyzed with the protocol described in example V. Thus, they are incubated in the presence of 20 μg/ml of colistin.

Pseudomonas aeruginosa [4] = assay: as above; conditions: colistin 20 μg/ml, 10 min 50° C.
Experimental: as §3, §4

CC(C)CCCCC(=O)N[C@@H](CCN)C(=O)N[C@H](C(=O)N[C@@H](CCN)C(=O)N[C@H]1CCNC(=O)[C@H]([C@@H](C)O)NC(=O)[C@H](CCN)NC(=O)[C@H](CCN)NC(=O)[C@H](CC(C)C)NC(=O)[C@@H](CC(C)C)NC(=O)[C@H](CCN)NC1=O)[C@@H](C)O [colistin] ({Heptanoyl(6-Me)}-[Dab]T[Dab][Dab][Dab][dL]L[Dab][Dab]T; lactam 4-C)
Sensible: Sensible ou Résistante (Acinetobacter baumannii [1]; strain AB_S044) | Sensible ou Résistante (Acinetobacter baumannii [1]; strain AB_S045) | Sensible ou Résistante (Acinetobacter baumannii [1]; strain AB_S046) | Sensible ou Résistante (Pseudomonas aeruginosa [2]; strain PA_S062) | Sensible ou Résistante (Pseudomonas aeruginosa [2]; strain PA_SE64)
resistance: sensitivity or resistance to colistin by MALDI-TOF (Escherichia coli; strain R16, 30 min at 37° C.) | sensitivity or resistance to colistin by MALDI-TOF (Escherichia coli; strain R16, 30 min at 50° C.)
sensitive: sensitivity or resistance to colistin by MALDI-TOF (Escherichia coli; strain EC_S, 4 h at 37° C.) | sensitivity or resistance to colistin by MALDI-TOF (Escherichia coli; strain S, 30 min at 37° C.) | sensitivity or resistance to colistin by MALDI-TOF (Acinetobacter baumannii [3]; strain AB_S044) | sensitivity or resistance to colistin by MALDI-TOF (Acinetobacter baumannii [3]; strain AB_S045) | sensitivity or resistance to colistin by MALDI-TOF (Acinetobacter baumannii [3]; strain AB_S046) | sensitivity or resistance to colistin by MALDI-TOF (Pseudomonas aeruginosa [4]; strain PA_S062) | sensitivity or resistance to colistin by MALDI-TOF (Pseudomonas aeruginosa [4]; strain PA_SE64)
resistant: sensitivity or resistance to colistin by MALDI-TOF (Escherichia coli; strain EC_R, 4 h at 37° C.) | sensitivity or resistance to colistin by MALDI-TOF (Acinetobacter baumannii [3]; strain AB_R-E105) | sensitivity or resistance to colistin by MALDI-TOF (Pseudomonas aeruginosa [4]; strain PA_RE66) | sensitivity or resistance to colistin by MALDI-TOF (Pseudomonas aeruginosa [4]; strain PA_RE68)
Résistante: Sensible ou Résistante (Acinetobacter baumannii [1]; strain AB_R-E105) | Sensible ou Résistante (Pseudomonas aeruginosa [2]; strain PA_RE66) | Sensible ou Résistante (Pseudomonas aeruginosa [2]; strain PA_RE68)
sensitivity: sensitivity or resistance to colistin by MALDI-TOF (Escherichia coli; strain S, 30 min at 50° C.)
